Like-named read-outs stand apart in the source and are kept apart here. One block for each compound: values may come before it.
Tests used:
Type in all cases: cell-based
H226 lung cancer cells = assay: Antiproliferative activity, ATP assay, H226; settings: Homo sapiens
Description: (§1) The antiproliferative activity of compounds of this invention or their conjugates was assayed as follows. Human tumor cell lines were obtained from the American Type Culture Collection (ATCC), P.O. Box 1549, Manassas, Va. 20108, USA, and cultured according to instruction from the ATCC. Cells were seeded at 1.0×10^3 or 1.0×10^4 cells/well in 96-well plates for 3 h for ATP assays or ^3H thymidine assays, respectively. 1:3 serial dilutions of free (unconjugated) compounds or their conjugates were added to the wells. Plates were allowed to incubate for 24 to 72 h. The ^3H thymidine plates were pulsed with 1.0 μCi of ^3H-thymidine per well for the last 24 hours of the total incubation period, harvested, and read on a Top Count Scintillation Counter (Packard Instruments, Meriden, Conn.). ATP levels in the ATP plates were measured using the CELLTITER-GLO® Luminescent Cell Viability kit following the manufacturer's manual and read on a GLOMAX® 20/20 luminometer (both from Promega, Madison, Wis., USA). The EC50 values—the concentration at which an agent inhibits or reduces cell proliferation by 50%—were determined using PRISM™ software, version 4.0 (GraphPad Software, La Jolla, Calif., USA).
FIG. 12b is a similar antiproliferative plot, but against H226 lung cancer cells. The ATP assay was used, with a 72 h incubation period.
FIG. 13c is another plot of the antiproliferative activity of conjugates 2H5-(IVf) and 6A4-(IVf) against H226 cells, but measured using the ATP assay, with a 72 h incubation period.

786-O renal cancer cells = assay: Antiproliferative activity, ATP assay, 786-O; settings: Homo sapiens
Description: as §1
The ATP assay was used, with a 72 h incubation period.

DU4475 (breast) = assay: Antiproliferative activity, ATP method, DU4475; settings: Homo sapiens, DU-4475
Description: as §1
(§2) The assay method was the ATP method. The cancer cell lines tested against were A2780 (ovarian), A549 (lung), CCRF-CEM (acute lymphoblastic leukemia), COLO205 (colon), DU4475 (breast), H2087 (lung, non-small cell), H661 (lung, large cell), HCT116 (colon), LNCaP (prostate), LS174T (colon), MDA MB468 (breast), MDA MB231 (breast), and SET2 (leukemia). The antiproliferative effects are reported as IC50's, i.e., the concentration of toxin that produces a 50% inhibitory effect.

HL-60 leukemia cells = assay: Antiproliferative activity, ATP assay, HL-60; settings: Homo sapiens
Description: as §1
FIG. 11a is a plot of the antiproliferative activity of compound (IIa) against HL-60 leukemia cells, as measured by the ATP assay using a 72 h incubation period, compared against three reference compounds: doxorubicin (adriamycin), uncialamycin, and Compound A, which is a DNA alkylating agent having the following structure: […]

[1] = system: H2087 (lung, non-small cell); assay: Antiproliferative activity, ATP method, H2087; settings: Homo sapiens, NCI-H2087
Description: as §1, §2

MDA MB231 (breast) = assay: Antiproliferative activity, ATP method, MDA MB231; settings: Homo sapiens, MDA-MB-231
Description: as §1, §2

COLO205 (colon) = assay: Antiproliferative activity, ATP method, COLO205; settings: Homo sapiens, COLO 205
Description: as §1, §2

A549 (lung) = assay: Antiproliferative activity, ATP method, A549; settings: Homo sapiens
[2] = system: CCRF-CEM (acute lymphoblastic leukemia); assay: Antiproliferative activity, ATP method, CCRF-CEM; settings: Homo sapiens
Description: as §1, §2

H661 (lung, large cell) = assay: Antiproliferative activity, ATP method, H661; settings: Homo sapiens, NCI-H661
Description: as §1, §2

A2780 (ovarian) = assay: Antiproliferative activity, ATP method, A2780; settings: Homo sapiens
Description: as §1, §2

SET2 (leukemia) = assay: Antiproliferative activity, ATP method, SET2; settings: Homo sapiens, SET-2
Description: as §1, §2

[3] = system: doxorubicin-resistant ovarian cancer cell line (Adr); assay: Antiproliferative activity, ATP assay, Adr; settings: Homo sapiens
Description: as §1
FIG. 11b is an analogous plot of antiproliferative activity against a doxorubicin-resistant ovarian cancer cell line (Adr), also using the ATP assay and a 72 h incubation period.

LS174T (colon) = assay: Antiproliferative activity, ATP method, LS174T; settings: Homo sapiens
Description: as §1, §2

HCT116 (colon) = assay: Antiproliferative activity, ATP method, HCT116; settings: Homo sapiens, HCT-116
Description: as §1, §2

LNCaP (prostate) = assay: Antiproliferative activity, ATP method, LNCaP; settings: Homo sapiens
Description: as §1, §2

MDA MB468 (breast) = assay: Antiproliferative activity, ATP method, MDA MB468; settings: Homo sapiens, MDA-MB-468
Description: as §1, §2

[4] = DU4475 cell line, ATP method, read-out: IC50
[5] = HL-60 leukemia cells, ATP assay, 72 h incubation, read-out: EC50
[6] = H2087 cell line, ATP method, read-out: IC50
[7] = MCD MB231 cell line, ATP method, read-out: IC50
[8] = COLO205 cell line, ATP method, read-out: IC50
[9] = A549 cell line, ATP method, read-out: IC50
[10] = CCRF-CEM cell line, ATP method, read-out: IC50
[11] = H661 cell line, ATP method, read-out: IC50
[12] = A2790 cell line, ATP method, read-out: IC50
[13] = SET2 cell line, ATP method, read-out: IC50
[14] = Adr cells (doxorubicin-resistant ovarian), ATP assay, 72 h incubation, read-out: EC50
[15] = LS174T cell line, ATP method, read-out: IC50
[16] = HCT116 cell line, ATP method, read-out: IC50
[17] = LNCaP cell line, ATP method, read-out: IC50
[18] = MDA MB468 cell line, ATP method, read-out: IC50

SMILES: C[C@@H](O)[C@@]12O[C@]13c1cc(O)c4c(c1N[C@H]2C#C/C=C\C#C[C@H]3O)C(=O)c1ccc(NCCN)cc1C4=O [Compound (IIc)]
- EC50 (H226 lung cancer cells; NCI-H226, 72 h): 0.986 nM
- EC50 (786-O renal cancer cells; 786-0, 72 h): 1.27 nM

SMILES: C[C@@H](O)[C@@]12O[C@]13c1cc(O)c4c(c1N[C@H]2C#C/C=C\C#C[C@H]3O)C(=O)c1ccc(N)cc1C4=O [Compound (IIa), 8-aminouncialamycin]
- IC50 (DU4475 (breast)): 0.002 nM
- EC50 (HL-60 leukemia cells; HL-60, 72 h): 0.00404 nM
- IC50 [1]: 0.037 nM
- IC50 (MDA MB231 (breast)): 0.085 nM
- IC50 (COLO205 (colon)): 0.01 nM
- IC50 (A549 (lung); A549): 0.076 nM
- EC50 (H226 lung cancer cells; NCI-H226, 72 h): 1 nM
- IC50 ([2]; CCRF-CEM): 0.014 nM
- EC50 (786-O renal cancer cells; 786-0, 72 h): 0.116 nM
- IC50 (H661 (lung, large cell)): 0.053 nM
- IC50 (A2780 (ovarian)): 0.003 nM
- IC50 (SET2 (leukemia)): 0.008 nM
- EC50 ([3]; 72 h): 0.0612 nM
- IC50 (LS174T (colon); LS174T): 0.002 nM
- IC50 (HCT116 (colon)): 0.007 nM
- IC50 (LNCaP (prostate); LNCaP): 0.001 nM
- IC50 (MDA MB468 (breast)): 0.012 nM

SMILES: C[C@@H](O)[C@@]12O[C@]13c1cc(O)c4c(c1N[C@H]2C#C/C=C\C#C[C@H]3O)C(=O)c1ccc(NC(=O)c2ccc(N)cc2)cc1C4=O [Compound (IId)]
- EC50 (H226 lung cancer cells; NCI-H226, 72 h): 0.873 nM
- EC50 (786-O renal cancer cells; 786-0, 72 h): 0.058 nM

SMILES: Nc1ccc(C(=O)Nc2ccc3[nH]c(C(=O)N4C[C@@H](CCl)c5c4cc(O)c4ccccc54)cc3c2)cc1 [Compound A]
- IC50 (DU4475 (breast); [4]): 0.001 nM
- EC50 (HL-60 leukemia cells; [5]): 0.00187 nM
- IC50 [1, 6]: 0.019 nM
- IC50 (MDA MB231 (breast); [7]): 0.068 nM
- IC50 (COLO205 (colon); [8]): 0.019 nM
- IC50 (A549 (lung); [9]): 0.04 nM
- IC50 [2, 10]: 0.019 nM
- IC50 (H661 (lung, large cell); [11]): 0.02 nM
- IC50 (A2780 (ovarian); [12]): 0.004 nM
- IC50 (SET2 (leukemia); [13]): 0.002 nM
- EC50 [3, 14]: 0.143 nM
- IC50 (LS174T (colon); [15]): 0.015 nM
- IC50 (HCT116 (colon); [16]): 0.002 nM
- IC50 (LNCaP (prostate); [17]): 0.01 nM
- IC50 (MDA MB468 (breast); [18]): 0.009 nM

- EC50 (HL-60 leukemia cells; [5]): 5.98 nM
- IC50 [1, 6]: 54.4 nM
- IC50 (COLO205 (colon); [8]): 19.7 nM
- IC50 (A549 (lung); [9]): 138 nM
- EC50 (H226 lung cancer cells; NCI-H226, H226 cells, ATP assay, 72 h incubation, free compounds, read-out: EC50): 141 nM
- IC50 [2, 10]: 19.4 nM
- EC50 (786-O renal cancer cells; 786-0, 786-O cells, ATP assay, 72 h incubation, read-out: EC50): 92.3 nM
- IC50 (H661 (lung, large cell); [11]): 26.6 nM
- IC50 (A2780 (ovarian); [12]): 11.2 nM
- IC50 (SET2 (leukemia); [13]): 67.6 nM
- EC50 [3, 14]: 3850 nM
- IC50 (HCT116 (colon); [16]): 23.4 nM
- IC50 (LNCaP (prostate); [17]): 5.5 nM
SMILES: COc1cccc2c1C(=O)c1c(O)c3c(c(O)c1C2=O)C[C@@](O)(C(=O)CO)C[C@@H]3O[C@H]1C[C@H](N)[C@H](O)[C@H](C)O1 [Doxorubicin, doxorubicin]
- IC50 (DU4475 (breast); [4]): 2.9 nM
- IC50 (MDA MB231 (breast); [7]): 90.5 nM
- IC50 (LS174T (colon); [15]): 11.1 nM
- IC50 (MDA MB468 (breast); [18]): 29 nM

SMILES: CNc1ccc2c(c1)C(=O)c1c(O)cc3c(c1C2=O)N[C@H]1C#C/C=C\C#C[C@@H](O)[C@@]32O[C@@]12[C@@H](C)O [Compound (IIe), 8-methylaminouncialamycin]
- EC50 (H226 lung cancer cells; NCI-H226, 72 h): 17.4 nM
- EC50 (786-O renal cancer cells; 786-0, 72 h): 1.72 nM

SMILES: C[C@@H](O)[C@@]12O[C@]13c1cc(O)c4c(c1N[C@H]2C#C/C=C\C#C[C@H]3O)C(=O)c1ccccc1C4=O [Uncialamycin, uncialamycin]
- EC50 (HL-60 leukemia cells; HL-60, 72 h): 0.012 nM
- EC50 ([3]; 72 h): 0.085 nM
